This is an account of results in ChEMBL document CHEMBL1158658, “Pyrrolizidine Alkaloids From Middle Eastern Plants” (1979).

Format in all cases: functional
For test [1], the system named is P388. Briefly: Antitumor activity against mouse P388 cells xenografted in male organism at 800 mg/kg relative to control.
In test [2] the test system is P388. Briefly: Antitumor activity against mouse P388 cells xenografted in male organism at 400 mg/kg relative to control.
The subject of test [3] is P388. Briefly: Antitumor activity against mouse P388 cells xenografted in male organism at 200 mg/kg relative to control.
For test [4], the system named is P388. Briefly: Antitumor activity against mouse P388 cells xenografted in male organism at 100 mg/kg relative to control.
The test system of test [5] is P388. Briefly: Antitumor activity against mouse P388 cells xenografted in female organism at 800 mg/kg relative to control.
For test [6], the system named is P388. Nature of the test: Antitumor activity against mouse P388 cells xenografted in female organism at 400 mg/kg relative to control.
Test [7] relates to P388. Nature of the test: Antitumor activity against mouse P388 cells xenografted in female organism at 200 mg/kg relative to control.
The subject of test [8] is P388. Briefly: Antitumor activity against mouse P388 cells xenografted in female organism at 100 mg/kg relative to control.
Test [9] deals with P388. Briefly: Antitumor activity against mouse P388 cells xenografted in female organism at 50 mg/kg relative to control.

With `CO[C@@H](C)[C@](O)(C(=O)OCC1=CC[N+]2([O-])CC[C@H](O)[C@@H]12)C(C)(C)O` (stereo not given in full), the T/C in [1] is 111; in test [2], 129; in test [3], 102; in [4] it was 111.

Consider `CC(C)[C@@](O)(C(=O)OCC1=CC[N+]2([O-])CC[C@H](O)[C@@H]12)[C@H](C)O` (stereo not given in full), for which the T/C was 145 in test [5]; 138 in test [6]; 118 in test [7]; 113 in test [8]; 109 in test [9].

For `CC(C)[C@](O)(C(=O)OCC1=CC[N+]2([O-])CC[C@@H](O)[C@@H]12)[C@H](C)O` (stereo not given in full) [INDICINE N-OXIDE], the T/C in test [1] came to 187; in [2] it was 165; in [3], 147; in test [5], 109; in test [6], 136; in test [7] it was 130.
